In patent US10688084B2 (priority 2016, dated 2020):
Like-named read-outs stand apart in the source and are kept apart here.

Assays:
[1] = cited from earlier work
[2] = literature value; cited from earlier work
acute inflammation = conditions: literature value; cited from earlier work
Wistar rats [3] = conditions: prototype of RU 2513089; cited from earlier work
[4] = tested on: subacute (formalin) edema; conditions: prototype of RU 2513089; cited from earlier work
cyclooxygenase (COX) = assay: COX activity assay (fluorometric kit, peroxidase activity) with skin fibroblast (HSF) cell lysate; assay type: biochemical; conditions: fibroblast cell lysate, 1.25 to 20 μM in the well
Wistar rats [5] = assay type: in vivo; conditions: for Δ t after 2 hours, (M ± SD) / Δ t after 3 hours, (M ± SD) / Δ t after 4 hours, (M ± SD) / Δ t after 5 hours, (M ± SD) / Δ t after 6 hours, (M ± SD) / Δ t after 7 hours, (M ± SD): 15 mg/kg
Method: In the study of antipyretic properties of the formula I compound, were taken female and male Wistar rats aged 6-7 weeks, with a body mass of 180-220 g. The number of animals in each group was 10.
The febrile reaction was caused by subcutaneous administration of a 20% suspension of baking yeast. The rectal temperature was measured with an electrothermometer prior to the introduction of yeast and 18 hours after it (the difference of these measurements is the estimated hyperthermic reaction). The preparation was administered to animals at the peak of hyperthermia once (after 18 hours). The antipyretic effect was evaluated by hyperthermia decrease 2 hours after the injection of the test substance, and then the effect dynamics was recorded at hourly intervals for 7 hours.
The introduction to rats was carried out in the amount of no more than 1 ml/100 g. The concentration of the resulting solution was 7.5 mg/ml.
The difference in temperature after preparation administration and after 18 hours of induction with yeast was taken as the parameter of hyperthermia decrease.
Animals were observed individually after administration throughout the study. […] Wilcoxon nonparametric criterion was used for statistical comparison of experimental groups. Differences were determined at the 0.05 level of significance. The statistical analysis was carried out using the R-studio program.

Wistar rats [6] = assay type: in vivo; conditions: for Analgesic effect, total/analgesic effect / Paw volume 0 hours / Paw volume 3 hours / Analgesic effect, %: 15 mg/kg
Method: In the study of analgesic properties of the formula I compound, were taken female and male Wistar rats aged 6-7 weeks with a body mass of 180-220 g. The number of animals in each group was 10.
[…] inflammation was modeled in rats by subplantar administration of 0.1 ml of a 1% solution of carrageenin (a sulfated polysaccharide from Irish sea moss) into the right hind paw. The substance was administered intragastrically using a gastric probe.
Inflammatory hyperalgesia (increased pain sensitivity of inflamed tissues in rats) was caused by carrageenin and was assessed by decrease of the pain sensitivity threshold—PST (by PST difference) to mechanical irritation (squeezing) of the paw tissue of the animal before the introduction of carrageenin and 3 hours after it. The measurement was performed on the inflamed paw. Used analgesimeter Ugo Basile S.R.L. (Italy) provides a gradual increased afterload on the rat's inflamed paw until a pain reaction appears (assessed by squeaking of animal or withdrawing the paw). The analyte was administered 2 h after carrageenin administration. […] An increase in the pain response threshold under the influence of the substances under study was expressed in an increase in the force of compression of the limb and characterized the intensity of the analgesic effect of the preparation. After the experiment, animals were euthanized by carbon dioxide inhalation method.
The introduction to rats was carried out in the amount of no more than 1 ml/100 g. The concentration of the resulting solution was 5 mg/ml.
(§1) To prepare a dose of 20 mg/kg, 40 ml of solution with a concentration of 5 mg/ml (50 mg/kg) were taken, transferred to a 100 ml measuring flask with accuracy class A, adjusted to 100 ml with 0.5% water solution of Tween-80 and the suspension was dispersed to a homogeneous consistency using a dispersant.
To prepare a dose of 10 mg/kg, 20 ml of solution with a concentration of 5 mg/ml (50 mg/kg) were taken, transferred to a 100 ml measuring flask with accuracy class A, adjusted to 100 ml with 0.5% aqueous solution of Tween-80 and the suspension was stirred to a homogeneous consistency with a magnetic stirrer MR Hei-Standard (Heidolph, Germany).
as §1, with “5” for “20”, “[…]” for “40”, “stirred” for “dispersed”, “with” for “using”, “magnetic stirrer.” for “dispersant.”

Question: For “2-[(2,6-dichlorophenyl) amino] benzene acetic acid [Diclofenac sodium]”, which UD50 ([1]; literature value) is on record?
Answer: 48 mg/kg

Question: Which results are given for `CC(C)Cc1ccc(C(C)C(=O)O)cc1` (racemic) [Ibuprofen, (RS)-2-(4-isobutylphenyl) propionic acid]?
Answer: LD50 [2]: 750 mg/kg; UD50 ([1]; literature value): 310 mg/kg; ED50 acute inflammation (acute inflammation): 48 mg/kg

Question: Which results are given for `COc1ccc2cc([C@H](C)C(=O)OCc3cnc(C)c(OC(=O)[C@@H](C)c4ccc5cc(OC)ccc5c4)c3COC(=O)[C@@H](C)c3ccc4cc(OC)ccc4c3)ccc2c1` [(2S,2'S)-(5-((S)-2-(6-methoxinaft-2-yl)propanoiloxy)-6-methylpyridine-3,4-diyl) bis (methylene) bis (2-(6-methoxynaphth-2-yl) propanoate)]?
Answer: Efficacy on the model of acute (carrageenin) edema in vivo (Wistar rats [3]): not effective enough; Efficacy on the model of subacute (formalin) edema in vivo [4]: pronounced anti-inflammatory effect

Question: For `CC(=O)Oc1ccccc1C(=O)O` [Acetylsalicylic acid], which LD50 [2] is on record?
Answer: 1600 mg/kg

Question: And the “LD50/ED50 (therapeutic index)” value [2]?
Answer: 16

Question: What about the UD50 ([1]; literature value) of the same compound?
Answer: 240 mg/kg

Question: What about the “UD50/ED50 (safety index)” value ([1]; literature value) of the same compound?
Answer: 2.45

Question: What about the ED50 acute inflammation (acute inflammation) of the same compound?
Answer: 98 mg/kg

Question: Which LD50 [2] does the source give for `COc1ccc2c(c1)c(CC(=O)O)c(C)n2C(=O)c1ccc(Cl)cc1` [Indomethacin, 1-(4-chlorobenzoyl)-5-methoxy-2-methyl-1H-indol-3-acetic acid] here?
Answer: 47 mg/kg

Question: What about the “LD50/ED50 (therapeutic index)” value [2] of the same compound?
Answer: 4.7

Question: And the UD50 ([1]; literature value)?
Answer: 10 mg/kg

Question: And the “UD50/ED50 (safety index)” value ([1]; literature value)?
Answer: 1

Question: What about the ED50 acute inflammation (acute inflammation) of the same compound?
Answer: 10 mg/kg

Question: With `COc1ccc2cc([C@H](C)C(=O)O)ccc2c1` [Naproxen, (S)-6-methoxy-α-methyl-2-naphthalenacetic acid, reference compound] as the compound, how does the IC50 (cyclooxygenase (COX)) read?
Answer: 9.56 µM

Question: What about the “Level of temperature decrease” value (Wistar rats [5]; 15 mg/kg (or 65 μmol/kg)) of the same compound?
Answer: 0.74-1.6 °C

Question: What about the “Δ t after 2 hours, (M ± SD)” value (Wistar rats [5]; females) of the same compound?
Answer: 1.64

Question: What about the “Δ t after 3 hours, (M ± SD)” value (Wistar rats [5]; females) of the same compound?
Answer: 1.35

Question: And the “Δ t after 4 hours, (M ± SD)” value (Wistar rats [5]; females)?
Answer: 1.58

Question: What about the “Δ t after 5 hours, (M ± SD)” value (Wistar rats [5]; females) of the same compound?
Answer: 1.21

Question: And the “Δ t after 6 hours, (M ± SD)” value (Wistar rats [5]; females)?
Answer: 1.09

Question: What about the “Δ t after 7 hours, (M ± SD)” value (Wistar rats [5]; females) of the same compound?
Answer: 0.74

Question: What about the “Δ t after 2 hours, (M ± SD)” value (Wistar rats [5]; males) of the same compound?
Answer: 1.39

Question: What about the “Δ t after 3 hours, (M ± SD)” value (Wistar rats [5]; males) of the same compound?
Answer: 1.49

Question: What about the “Δ t after 4 hours, (M ± SD)” value (Wistar rats [5]; males) of the same compound?
Answer: 1.6

Question: And the “Δ t after 5 hours, (M ± SD)” value (Wistar rats [5]; males)?
Answer: 1.51

Question: What about the “Δ t after 6 hours, (M ± SD)” value (Wistar rats [5]; males) of the same compound?
Answer: 1.53

Question: What about the “Δ t after 7 hours, (M ± SD)” value (Wistar rats [5]; males) of the same compound?
Answer: 1.44

Question: And the UD50 ([1]; literature value)?
Answer: 49 mg/kg

Question: And the “Analgesic effect, total/analgesic effect” value (Wistar rats [6]; females)?
Answer: 10/7

Question: And the “Paw volume 0 hours” value (Wistar rats [6]; females)?
Answer: 5.0 ± 6.2

Question: What about the “Paw volume 3 hours” value (Wistar rats [6]; females) of the same compound?
Answer: 5.0 ± 3.2

Question: What about the “Analgesic effect, %” value (Wistar rats [6]; females, control = 100.0) of the same compound?
Answer: 195.3 ± 125.3%

Question: And the “Dose at which a pronounced anesthetic effect is exhibited” value (Wistar rats [6]; intragastric)?
Answer: 15 mg/kg

Question: What about the “Analgesic effect, total/analgesic effect” value (Wistar rats [6]; males) of the same compound?
Answer: 10/7

Question: What about the “Analgesic effect, %” value (Wistar rats [6]; rat, in vivo) of the same compound?
Answer: 234.5 ± 160.2%

Question: And the “Paw volume 0 hours” value (Wistar rats [6]; rat, in vivo)?
Answer: 5.0 ± 2.9

Question: And the “Paw volume 3 hours” value (Wistar rats [6]; rat, in vivo)?
Answer: 6.7 ± 4.6

Question: And the ED50 acute inflammation (acute inflammation)?
Answer: 15 mg/kg

Question: For `CCCCC1C(=O)N(c2ccccc2)N(c2ccccc2)C1=O` [Phenylbutazone], which UD50 ([1]; literature value) is on record?
Answer: 120 mg/kg

Question: Which results are given for `CN1C(C(=O)Nc2ccccn2)=C(O)c2ccccc2S1(=O)=O` [Pyroxicam]?
Answer: LD50 [2]: 290 mg/kg; LD50/ED50 (therapeutic index) [2]: 15; UD50 ([1]; in vivo): 36 mg/kg; UD50/ED50 (safety index) ([1]; literature value): 1.8; ED50 acute inflammation (acute inflammation): 20 mg/kg
